Where a name gives a salt, the structure may show the parent alone.
Key:
SMOX [1] = biological target: T1, SMOX (Homo sapiens (Human), UniProt Q9NWM0); experiment: Human SMOX assay (HyPerBlu chemiluminescent detection of hydrogen peroxide); format: biochemical; settings: 2.5 nM full length hSMOX, spermine substrate, 1 h at room temperature, luminescence read; read-out: SMOx_IC50
Summary of the method: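 Full-length N-His human SMOX (2.5 nM, E. coli-expressed) was incubated 1 h at room temperature with 30 µM spermine, 11-point compound dilutions and 1.25% DMSO in pH 7.4 HEPES/NaCl/EGTA buffer. H2O2 was detected by HyPerBlu chemiluminescence after 30 min, and IC50 came from dose–response fits.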

hPAOX = hPAOX (Homo sapiens (Human), UniProt Q6QHF9); experiment: Human PAOX assay (HyPerBlu chemiluminescent detection of hydrogen peroxide); format: biochemical; settings: 60 pM recombinant PAOX, 20 μM N-acetylspermine substrate
Summary of the method: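 His-tagged recombinant PAOX expressed in sf9 insect cells was used at 60 pM, with 20 μM N-acetylspermine as substrate. Hydrogen peroxide formed by the reaction was detected by chemiluminescence from a boronate probe (HyPerBlu). Inhibition appears as lower luminescence.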

SMOX [2] = biological target: T1, SMOX; experiment: Cellular Thermal Shift Assay (CETSA) with alphaLISA detection of intact SMOX in A549 cells; format: cell-based; settings: 1 hour compound incubation at 37° C., heated to 55° C. for 5 minutes
Description: The Cellular Thermal Shift Assay (CETSA) is a biophysical assay based on the principle of ligand-induced thermal stabilization of target proteins, meaning that a protein denaturing temperature will change upon ligand interaction. Thus, by heating samples (i.e. cells, ex vivo samples) to different temperatures, and quantifying conformationally intact proteins we can detect compound-protein interactions after compound treatment. CETSA allows direct monitoring of ligand binding to a specific target (target engagement). In our study, we have developed a suitable detection system that will detect intact SMOX using the alphaLISA. […] The detection of compound -SMOX ligand binding is performed using A549 cells. This adenocarcinoma human alveolar basal epithelial cell line expresses high levels of SMOX. Their use has been widely reported in the literature with respect to the investigation of the SMOX pathway. Using SMOX high-expressing cells with CETSA and alphaLISA systems provides the optimal platform for screening small molecules for SMOX inhibition.
A549 cells were seeded at a density of 0.05-0.1×10^6 cells/mL in T175 flasks and cultured in 25 mL of culture medium consisting in RPMI 1640 medium (Gibco) supplemented with 10% fetal bovine serum (Gibco). Cells were passaged twice per week and used for CETSA assays before reaching confluency. One day prior to the CETSA cells were seeded in 384-well white assay plates (Corning) at 15000 cells per well. Briefly, cells were washed with PBS (Life Technologies Europe BV) and dissociated by adding 2 mL TrypLE™ Select (Life Technologies Europe BV). After 5 min at 37° C., cells were resuspended in culture medium, counted using a ViCell XR cell counter (ViCell) and seeded in the 384-well plates.
Compounds were pre-diluted in PBS to a final concentration of […] and 1% DMSO and serially diluted in PBS 1% DMSO. For compound-cell incubation, medium in the 384 well plates was replaced with 30 μL of serially diluted compounds. After incubation at 37° C. for 1 hour the liquid was removed and plates were heated to 55° C. for 5 minutes and then transferred to ice for 5 minutes. After the cooling step, cells were lysed by adding 15 μL 1× alphaLISA-buffer (Perkin Elmer) containing anti-SMOX monoclonal antibody #2 and anti-SMOX Fab-fragment #33 mixture at a concentration of 5 and 0.5 nM respectively. After one hour at RT, 5 μL anti-6×His alphaLISA acceptor beads (50 mg/L, AL128C, Perkin Elmer) were added to the wells followed by an additional incubation of one hour at RT. Then 5 μL anti-rabbit IgG alpha donor beads (200 mg/L was added to the wells. After one hour incubation at RT the alpha signal was read using an alpha compatible reader. MDL75257 (M2949, Sigma) was used as positive control for compound-SMOX interaction. Compound-SMOX interaction is detected through the comparison of the high alpha signal of the negative control with the much lower signal of the wells that contain SMOX binding compounds.

hPAOX, sequence (Q6QHF9 whole entry): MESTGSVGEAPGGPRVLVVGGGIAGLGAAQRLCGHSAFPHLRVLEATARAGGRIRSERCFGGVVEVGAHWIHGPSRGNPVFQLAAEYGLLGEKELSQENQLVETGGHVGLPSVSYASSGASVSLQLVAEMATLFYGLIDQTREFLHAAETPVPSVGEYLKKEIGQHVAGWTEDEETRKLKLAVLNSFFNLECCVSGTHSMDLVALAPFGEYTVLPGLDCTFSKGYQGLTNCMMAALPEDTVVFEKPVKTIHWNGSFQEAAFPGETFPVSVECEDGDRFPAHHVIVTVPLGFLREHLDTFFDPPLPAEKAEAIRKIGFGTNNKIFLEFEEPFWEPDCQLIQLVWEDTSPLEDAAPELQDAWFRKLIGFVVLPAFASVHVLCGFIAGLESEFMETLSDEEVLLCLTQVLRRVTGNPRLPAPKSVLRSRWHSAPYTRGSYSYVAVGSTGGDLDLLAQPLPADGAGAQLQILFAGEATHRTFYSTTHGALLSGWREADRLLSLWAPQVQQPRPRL
T1 sequence (Q9NWM0 whole entry): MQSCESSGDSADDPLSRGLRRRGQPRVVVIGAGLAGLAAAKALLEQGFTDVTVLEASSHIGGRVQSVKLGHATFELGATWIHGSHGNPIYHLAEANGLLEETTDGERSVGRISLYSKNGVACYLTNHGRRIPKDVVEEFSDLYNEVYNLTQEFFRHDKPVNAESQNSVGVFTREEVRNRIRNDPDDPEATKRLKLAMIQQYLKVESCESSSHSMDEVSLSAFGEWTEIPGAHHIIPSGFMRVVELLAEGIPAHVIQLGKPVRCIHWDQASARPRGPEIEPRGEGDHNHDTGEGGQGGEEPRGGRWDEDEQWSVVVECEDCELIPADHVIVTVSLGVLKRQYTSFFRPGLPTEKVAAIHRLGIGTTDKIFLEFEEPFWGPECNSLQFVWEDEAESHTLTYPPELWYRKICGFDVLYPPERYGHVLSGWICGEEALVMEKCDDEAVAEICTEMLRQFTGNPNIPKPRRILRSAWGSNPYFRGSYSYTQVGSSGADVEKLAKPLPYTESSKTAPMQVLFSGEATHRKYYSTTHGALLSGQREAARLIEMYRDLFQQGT

| IC50 (SMOX [1]) | IC50 (hPAOX) | SMOx % recovery CETSA (SMOX [2]) | SMILES |
| --- | --- | --- | --- |
| 65 nM | 306 nM | 10% | O=C(NCC1CCc2nccn2C1)c1cc2nc(-c3ccccc3)cc(-c3ccccc3)n2n1 (stereo not drawn) [Example 20, 5,7-Diphenyl-N-((5,6,7,8-tetrahydroimidazo[1,2-a]pyridin-6-yl)methyl)pyrazolo[1,5-a]pyrimidine-2-carboxamide] |
| 176 nM | 4440 nM | 1% | CC(C)Nc1cc(-c2ccccc2)nc2cc(C(=O)NCCCn3ccnc3)nn12 [Example 57, N-(3-(1H-Imidazol-1-yl)propyl)-7-(isopropylamino)-5-phenylpyrazolo[1,5-a]pyrimidine-2-carboxamide] |
| 45 nM | 942 nM | 26% | Cc1nccn1CCCNC(=O)c1cc2nc(-c3ccccc3)cc(-c3ccccc3)n2n1 [Example 2, N-(3-(2-Methyl-1H-imidazol-1-yl)propyl)-5,7-diphenylpyrazolo[1,5-a]pyrimidine-2-carboxamide] |
| 15 nM | 49 nM | 43% | O=C(NCCCc1c[nH]cn1)c1cc2nc(-c3ccccc3)cc(-c3ccccc3)n2n1 [Example 27, N-(3-(1H-Imidazol-4-yl)propyl)-5,7-diphenylpyrazolo[1,5-a]pyrimidine-2-carboxamide] |
| 24 nM | 6850 nM | 29% | O=C(NCCCn1ccnc1)c1cc2nc(-c3ccccc3)cc(N3CCCCC3)n2n1 [Example 58, N-(3-(1H-Imidazol-1-yl)propyl)-5-phenyl-7-(piperidin-1-yl)pyrazolo[1,5-a]pyrimidine-2-carboxamide] |
| 36 nM | 1410 nM | 0% | O=C(NCCCn1ccnc1)c1cc2nc(-c3ccccc3)cc(-c3cccc(F)c3)n2n1 [Example 78, N-(3-(1H-imidazol-1-yl)propyl)-7-(3-fluorophenyl)-5-phenylpyrazolo[1,5-a]pyrimidine-2-carboxamide] |
| 117 nM | 8610 nM | 2% | CN1CCC(C)(CNC(=O)c2cc3nc(-c4ccccc4)cc(-c4ccccc4)n3n2)C1 (stereo not drawn) [Example 21, N-((1,3-Dimethylpyrrolidin-3-yl)methyl)-5,7-diphenylpyrazolo[1,5-a]pyrimidine-2-carboxamide] |
| 46 nM | 397 nM | 12% | Cn1ccnc1CCCNC(=O)c1cc2nc(-c3ccccc3)cc(-c3ccccc3)n2n1 [Example 1, N-(3-(1-Methyl-1H-imidazol-2-yl)propyl)-5,7-diphenylpyrazolo[1,5-a]pyrimidine-2-carboxamide] |
| 58 nM | 2920 nM | 52% | O=C(NCCCn1ccnc1)c1cc2nc(-c3ccccc3)cc(C3CCCCO3)n2n1 (stereo not drawn) [Example 111, N-(3-(1H-imidazol-1-yl)propyl)-5-phenyl-7-(tetrahydro-2H-pyran-2-yl)pyrazolo[1,5-a]pyrimidine-2-carboxamide] |
| 241 nM | 2330 nM | 6% | O=C(NCCCn1ccnc1)c1cc2nc(-c3ccccc3)cc(N3CCC(F)CC3)n2n1 [Example 63, N-(3-(1H-Imidazol-1-yl)propyl)-7-(4-fluoropiperidin-1-yl)-5-phenylpyrazolo[1,5-a]pyrimidine-2-carboxamide] |
| 49 nM | 6040 nM | 87% | O=C(NCCCn1ccnc1)c1cc2nc(-c3ccccc3)cc(N3CCCC(F)C3)n2n1 (stereo not drawn) [Example 62, N-(3-(1H-Imidazol-1-yl)propyl)-7-(3-fluoropiperidin-1-yl)-5-phenylpyrazolo[1,5-a]pyrimidine-2-carboxamide] |
| 159 nM | 879 nM | 0% | N#Cc1cccc(-c2cc(-c3ccccc3)nc3cc(C(=O)NCCCn4ccnc4)nn23)c1 [Example 89, N-(3-(1H-imidazol-1-yl)propyl)-7-(3-cyanophenyl)-5-phenylpyrazolo[1,5-a]pyrimidine-2-carboxamide] |
| 161 nM | 680 nM | 0% | CN(C)CCCNC(=O)c1cc2nc(-c3ccccc3)cc(-c3ccccc3)n2n1 [Example 18, N-(3-(Dimethylamino)propyl)-5,7-diphenylpyrazolo[1,5-a]pyrimidine-2-carboxamide] |
| 192 nM | 6320 nM | 4% | CCN1CCC[C@@H]1CNC(=O)c1cc2nc(-c3ccccc3)cc(-c3ccccc3)n2n1 [Example 15, (R)—N-((1-Ethylpyrrolidin-2-yl)methyl)-5,7-diphenylpyrazolo[1,5-a]pyrimidine-2-carboxamide] |
| 24 nM | 2190 nM | 40% | O=C(NCCCn1ccnc1)c1cc2nc(-c3ccccc3)cc(-c3ccc(F)cc3)n2n1 [Example 86, N-(3-(1H-imidazol-1-yl)propyl)-7-(4-fluorophenyl)-5-phenylpyrazolo[1,5-a]pyrimidine-2-carboxamide] |
| 231 nM | 233 nM | 0% | O=C(NCCn1ccnc1)c1cc2nc(-c3ccccc3)cc(-c3ccccc3)n2n1 [Example 12, N-(2-(1H-Imidazol-1-yl)ethyl)-5,7-diphenylpyrazolo[1,5-a]pyrimidine-2-carboxamide] |
| 78 nM | 1610 nM | 3% | N#Cc1ccc(-c2cc(-c3ccccc3)nc3cc(C(=O)NCCCn4ccnc4)nn23)cc1 [Example 90, N-(3-(1H-imidazol-1-yl)propyl)-7-(4-cyanophenyl)-5-phenylpyrazolo[1,5-a]pyrimidine-2-carboxamide] |
| 158 nM | 307 nM | 2% | CN1CCC(CNC(=O)c2cc3nc(-c4ccccc4)cc(-c4ccccc4)n3n2)C1 (stereo not drawn) [Example 19, N-((1-Methylpyrrolidin-3-yl)methyl)-5,7-diphenylpyrazolo[1,5-a]pyrimidine-2-carboxamide] |
| 43 nM | 2050 nM | 111% | O=C(NCCCn1ccnc1)c1cc2nc(-c3ccccc3)cc(-c3ccccn3)n2n1 [Example 91, N-(3-(1H-imidazol-1-yl)propyl)-5-phenyl-7-(pyridin-2-yl)pyrazolo[1,5-a]pyrimidine-2-carboxamide] |
| 147 nM | 5880 nM | 39% | CN1CC(NC(=O)c2cc3nc(-c4ccccc4)cc(N4CCCCC4)n3n2)C1 [Example 68, N-(1-methylazetidin-3-yl)-5-phenyl-7-(piperidin-1-yl)pyrazolo[1,5-a]pyrimidine-2-carboxamide trifluoroacetate] |
| 22 nM | 1270 nM | 24% | O=C(NCCCn1ccnc1)c1cc2nc(-c3ccccc3)cc(C3CCCCC3)n2n1 [Example 107, N-(3-(1H-imidazol-1-yl)propyl)-7-cyclohexyl-5-phenylpyrazolo[1,5-a]pyrimidine-2-carboxamide] |
| 102 nM | 1570 nM | 0% | O=C(NCCCn1ccnc1)c1cc2nc(-c3ccccc3)cc(-c3ccc(O)cc3)n2n1 [Example 88, N-(3-(1H-imidazol-1-yl)propyl)-7-(4-hydroxyphenyl)-5-phenylpyrazolo[1,5-a]pyrimidine-2-carboxamide] |
| 10 nM | 739 nM | 74% | O=C(NCCCn1ccnc1)c1cc2nc(-c3ccccc3)cc(-c3ccccc3)n2n1 [Example 43, N-(3-(1H-Imidazol-1-yl)propyl)-5,7-diphenylpyrazolo[1,5-a]pyrimidine-2-carboxamide] |
